Assay results from patent US12686704B2, “Procoagulant peptides and use thereof” (RAMBAM MED-TECH LTD., priority 2021, dated 2026).

Columns and labels:
[1] = tested on: human umbilical vein endothelial cells (HUVEC); assay: HUVEC proliferation, XTT assay; assay type: cell-based; details: 2.5 μg/ml and 5 μg/ml; 48 hour; FIG. 5A
Method: FIGS. 5A-5B include vertical bar graphs showing that heparanase procoagulant peptides induce human umbilical vein endothelial cells (HUVEC) proliferation. (5A) HUVEC cells were seeded in 96 wells plate (5,000 cells/well). Increasing concentration of peptides 16 and 16AC (2.5 μg/ml, and 5 μg/ml) were added to the cells. […] (5B) Similar experiment as described in 5A, but 10 ng/ml of peptide 7 (TFPI-2 derived inhibitory peptide) was added to the cells for 1 hour prior to the addition of peptide 16 (5 μg/ml) or 16AC (5 μg/ml).
Briefly, HUVEC cells were seeded in 96 wells plate (5,000 cells/well). Increasing concentration of peptides 16 and 16AC (2.5 μg/ml, and 5 μg/ml) were added to the cells.

[2] = tested on: ICR mice; assay: Immunostaining of wound skin sections of ICR mice; assay type: in vivo, mouse; details: subcutaneous opposite to the wound every other day for a week; for expression of heparanase in micro-vessels: FIG. 10A; for expression of TF in micro-vessels: FIG. 10B; for expression of TFPI-1 in micro-vessels: FIG. 10C; for expression of TFPI-2 in micro-vessels: FIG. 10D
Method: FIGS. 10A-10D include micrographs of immunohistochemistry assays showing that heparanase procoagulant peptides increase the level of heparanase, TF, TFPI and TFPI-2. Full thickness incision was made in the back skin of ICR mice. Each group included 5 mice. From the day of surgery either peptide 16 or 16AC was injected subcutaneous opposite to the wound, every other day for a week. At the end of the experiment the mice were sacrificed and the wound skin section was analyzed by immunostaining. […] Images were visualized through ×50 magnitude, with 0.82 MDC objective lens, captured with a Nikon E995 digital camera (Nikon, Tokyo, Japan), and processed with Adobe Photoshop software (Adobe Systems, San Jose, CA, USA).
Briefly, full thickness incision was made in the back skin of ICR mice. Each group included 5 mice. From the day of surgery either peptide 16 or 16AC was injected subcutaneous opposite to the wound, every other day for a week. At the end of the experiment the mice were sacrificed and the wound skin section was analyzed by immunostaining.

[3] = tested on: citrated pooled normal human blood; assay: Thromboelastography (TEG) of citrated pooled normal human blood; details: for Angle / K / MA (maximal amplitude) / R (time to clot formation) / SP / thrombus strength (maximal amplitude, MA), in words / time to clot formation (R), in words: 5 μg/ml with calcium; for Angle / K / MA (maximal amplitude) / R (time to clot formation) / SP: blood left 4 hours at room temperature, representative TEG curve FIG. 1B; for thrombus strength (maximal amplitude, MA), in words / time to clot formation (R), in words: vs control
Method: FIGS. 1A-1C include vertical bar graphs and thromboelastography (TEG) curves, showing that peptide 16 and peptide 16AC increase coagulation. Peptide 16 and 16AC were studied in an assay of purified proteins that included lipidated TF (4 nM), factor VIIa (40 nM), factor X (1.4 μM) and assay buffer. Factor X activated form (Xa) level was studied using a chromogenic substrate (1 mM). […] Bovine factor Xa diluted in the assay buffer was used to generate a standard curve. Without addition of TF (two right columns), no factor Xa was generated. […] (1B) A citrated pooled normal human blood sample (n=3) was left for 4 hours at room temperature in order to expose TF in bloods cells. Following this period, the peptides 16 and 16AC were added (5 μg/ml) along with calcium. […] Representative TEG curves are shown. (1C) The study presented in FIG. 1B was repeated 3 times with different pooled plasma. […] Peptide 16 (non-modified); peptide 16 comprising a C-terminal amid group (16A); peptide 16 comprising an N-terminal acetyl group (16C); and peptide 16 comprising a C-terminal amid group and an N-terminal acetyl group (16AC). In 1B: for control—SP min=11.2; R min=12.8; K min=3.8, Angle deg=52.0; and MA mm=47.9, for Peptide 16—SP min=5.2; R min=6.4; K min=2.8, Angle deg=63.3; and MA mm=50.4, and for Peptide 16AC—SP min=4.7; R min=5.6; K min=2.5, Angle deg=63.1; and MA mm=53.8.
A citrated pooled normal human blood sample (n=3) was left for 4 hours at room temperature in order to expose TF in bloods cells. Following this period, the peptides 16 and 16AC were added (5 μg/ml) along with calcium. […] Representative images are shown (FIG. 1B). The study from B section was repeated 3 times with different pooled blood.

[4] = tested on: ICR mice; assay: Wound healing after full thickness skin incision in ICR mice; assay type: in vivo, mouse; details: for number of capillaries (vessels) in wound skin tissue: H&E staining at end of experiment, FIGS. 4D-4E; for wound healing (wound size): S.C. opposite to the wound on alternate days for one week, FIGS. 4A-4B
Method: FIGS. 4A-4E include images, micrographs, and graphs showing that that modified heparanase procoagulant peptides of the invention enhance wound healing. (4A) Full thickness incision of 10 mm was made in the back skin of ICR (normal, no genetic background) mice. On alternate days, for one week after surgery, peptide 16 or peptide 16AC was injected subcutaneously (S.C.) opposite to the wound at the indicated dose. Control group was injected the vehicle (PBS). […] Similar results were observed when the peptides were topically applied as a cream preparation (4C). n—number of mice. Mann-Whitney U test was used. Results represent mean±SD, **p<0.001, ***p<0.0001. (4D) At the end of the experiment the mice were sacrificed and the skin tissue from the wound site excised, and histologically analyzed using hematoxylin and eosin (H&E) staining. Representative images are shown. […] The number of capillaries presented reflects the median and range of five different fields. Mann-Whitney U test was used. Results represent mean±SD, *p<0.01, **p<0.001.
Full thickness incision of 10 mm was made in the back skin of ICR (normal, no genetic background) mice. On alternate days, for one week after surgery, peptide 16 was injected sub-cutaneous (S.C.) opposite to the wound at the indicated dose. Control group was injected the vehicle (PBS). […] Similar results were obtained when the peptides were applied topically in a cream preparation (FIG. 4C). At the end of the experiment the mice were sacrificed and the skin tissue from the wound site was analyzed using H&E staining.

[5] = tested on: HUVEC cells; assay: HUVEC migration, scratch (artificial gap) assay; assay type: cell-based, human; details: 10 μg/ml; 4 hours; compared to the control and the non-modified peptide 16
Method: FIG. 11 includes micrographs showing that procoagulant peptides increase endothelial cells migration. HUVEC cells were seeded in 35 mm dishes. At confluence of 90%, artificial gap was created using 1,000-μl standard pipette tip. Plate was washed twice with PBS to remove cell debris and incubated with either peptide 16 or 16AC (10 μg/ml). Representative photos of the scratched area after 4 hours are presented. Images were visualized through ×50 magnitude, with 0.82 MDC objective lens, captured with a Nikon E995 digital camera (Nikon, Tokyo, Japan), and processed with Adobe Photoshop software (Adobe Systems, San Jose, CA, USA).
Briefly, HUVEC cells were seeded in 35 mm dishes. At confluence of 90%, artificial gap was created using 1,000 μl standard pipette tip. Plate was washed twice with PBS to remove cell debris and incubated with either peptide 16 or 16AC (10 μg/ml).

| Substance | cell proliferation [1] | expression of heparanase in micro-vessels [2] | expression of TF in micro-vessels [2] | expression of TFPI-1 in micro-vessels [2] | expression of TFPI-2 in micro-vessels [2] | Angle [3] [deg] | K [3] [min] | MA (maximal amplitude) [3] [mm] | R (time to clot formation) [3] [min] | SP [3] [min] | thrombus strength (maximal amplitude, MA), in words [3] | time to clot formation (R), in words [3] | number of capillaries (vessels) in wound skin tissue [4] | wound healing (wound size) [4] | migrating HUVEC cells [5] | clot formation compared to peptide 16 ([3]; 5 μg/ml, repeated 3 times with different pooled blood, FIG. 1C) | number of capillaries (vessels) in wound skin tissue ([4]; listed as peptide 16AC) |
| --- | --- | --- | --- | --- | --- | --- | --- | --- | --- | --- | --- | --- | --- | --- | --- | --- | --- |
| GSKRRKLRVYLHCT [Peptide 16, peptide comprising the procoagulant domain of heparanase, non-modified] | significant increase in cell proliferation | significant increase in the expression | significant increase in the expression | significant increase in the expression | significant increase in the expression | 63.3 | 2.8 | 50.4 | 6.4 | 5.2 | increased thrombus strength | significantly reduced the time to clot formation (R) | significant increase of capillaries | significantly enhanced wound healing |  |  |  |
| acetyl-GSKRRKLRVYLHCT-amid (Ac-GSKRRKLRVYLHCT-NH2) [Peptide 16AC, peptide 16 comprising a C-terminal amid group and an N-terminal acetyl group] | significant increase in cell proliferation | significant increase in the expression | significant increase in the expression | significant increase in the expression | significant increase in the expression | 63.1 | 2.5 | 53.8 | 5.6 | 4.7 | increased thrombus strength | significantly reduced the time to clot formation (R) | significantly better effect | significantly better effect on wound size | substantial increase in migrating HUVEC cells | significant better effect to increase clot formation compared to peptide 16 | significant increase of capillaries |
